According to the supplement of paper PMC10307832:

Tests used:
Assay in all cases: relative viability (nuclei count vs DMSO), 5 days (fraction); higher = more cells survive
[1] = tested on: NCI-H2170
Summary of the method: (§1)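 Cells from lung cancer lines were seeded into 1536-well plates and, one day later, dosed by pin tool. Treatments were either a single drug or a fixed dose of an anchor drug with five library-drug doses (not always all listed) in √10 steps. After 5 days, nuclei were stained in a one-step fixation (final 0.05% Triton X-100, 1% formaldehyde, 1 ug/ml Hoechst) and counted on 4× images, and relative viability is the treated-to-vehicle nuclei ratio, as the median of duplicate plates.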

[2] = tested on: NCI-H2228
Summary of the method: as §1

[3] = tested on: NCI-H3122
Summary of the method: as §1

[4] = tested on: NCI-H322M
Summary of the method: as §1

[5] = tested on: NCI-H522
Summary of the method: as §1

[6] = tested on: NCI-H596
Summary of the method: as §1

[7] = tested on: NCI-H727
Summary of the method: as §1

[8] = tested on: PC-3 [JPC-3]
Summary of the method: as §1

[9] = tested on: SK-MES-1
Summary of the method: as §1

[10] = tested on: SW 1573
Summary of the method: as §1

[11] = tested on: SW 900
Summary of the method: as §1

## O=c1cc(N2CCOCC2)oc2c(-c3cccc4c3sc3ccccc34)cccc12 + CCNC(=O)c1noc(-c2cc(C(C)C)c(O)cc2O)c1-c1ccc(CN2CCOCC2)cc1 [Luminespib] (partner 0.01 µM)
[1]; first compound 0.01 µM
  relative viability: 0.445
[1]; first compound 0.03162 µM
  relative viability: 0.668
[1]; first compound 0.1 µM
  relative viability: 0.654
[1]; first compound 0.3162 µM
  relative viability: 0.548
[1]; first compound 1 µM
  relative viability: 0.744
[2]; first compound 0.01 µM
  relative viability: 0.151
[2]; first compound 0.03162 µM
  relative viability: 0.112
[2]; first compound 0.1 µM
  relative viability: 0.125
[2]; first compound 0.3162 µM
  relative viability: 0.191
[2]; first compound 1 µM
  relative viability: 0.133
[3]; first compound 0.01 µM
  relative viability: 0.073
[3]; first compound 0.03162 µM
  relative viability: 0.101
[3]; first compound 0.1 µM
  relative viability: 0.0916
[3]; first compound 0.3162 µM
  relative viability: 0.0864
[3]; first compound 1 µM
  relative viability: 0.0779
[4]; first compound 0.01 µM
  relative viability: 0.901
[4]; first compound 0.03162 µM
  relative viability: 0.864
[4]; first compound 0.1 µM
  relative viability: 0.889
[4]; first compound 0.3162 µM
  relative viability: 0.839
[4]; first compound 1 µM
  relative viability: 0.756
[5]; first compound 0.01 µM
  relative viability: 1.23
[5]; first compound 0.03162 µM
  relative viability: 1.37
[5]; first compound 0.1 µM
  relative viability: 0.915
[5]; first compound 0.3162 µM
  relative viability: 1.06
[5]; first compound 1 µM
  relative viability: 1.14
[6]; first compound 0.01 µM
  relative viability: 1.05
[6]; first compound 0.03162 µM
  relative viability: 0.917
[6]; first compound 0.1 µM
  relative viability: 0.877
[6]; first compound 0.3162 µM
  relative viability: 1.14
[6]; first compound 1 µM
  relative viability: 1.01
[7]; first compound 0.01 µM
  relative viability: 0.324
[7]; first compound 0.03162 µM
  relative viability: 0.399
[7]; first compound 0.1 µM
  relative viability: 0.375
[7]; first compound 0.3162 µM
  relative viability: 0.356
[7]; first compound 1 µM
  relative viability: 0.416
[8]; first compound 0.01 µM
  relative viability: 0.711
[8]; first compound 0.03162 µM
  relative viability: 0.694
[8]; first compound 0.1 µM
  relative viability: 0.689
[8]; first compound 0.3162 µM
  relative viability: 0.695
[8]; first compound 1 µM
  relative viability: 0.634
[9]; first compound 0.01 µM
  relative viability: 0.712
[9]; first compound 0.03162 µM
  relative viability: 0.767
[9]; first compound 0.1 µM
  relative viability: 0.736
[9]; first compound 0.3162 µM
  relative viability: 0.661
[9]; first compound 1 µM
  relative viability: 0.741
[10]; first compound 0.01 µM
  relative viability: 0.419
[10]; first compound 0.03162 µM
  relative viability: 0.205
[10]; first compound 0.1 µM
  relative viability: 0.211
[10]; first compound 0.3162 µM
  relative viability: 0.735
[10]; first compound 1 µM
  relative viability: 0.218
[11]; first compound 0.01 µM
  relative viability: 0.203
[11]; first compound 0.03162 µM
  relative viability: 0.186
[11]; first compound 0.1 µM
  relative viability: 0.173
[11]; first compound 0.3162 µM
  relative viability: 0.196
[11]; first compound 1 µM
  relative viability: 0.176
